Experimental data published in US10028961B2, “Therapeutically active compounds and their methods of use” (AGIOS PHARMACEUTICALS, INC., priority 2013, dated 2018).
Like-named read-outs stand apart in the source and are kept apart here.

Experiments:
[1] = target: IDH1 wt/IDH1 R132H heterodimer (Homo sapiens (Human), UniProt O75874, R132H); experiment: In vitro assay for IDH1m R132H inhibitors, IDH1 wt/IDH1 R132H heterodimer, NADPH depletion (diaphorase/resazurin); format: biochemical
Procedure: The following describes the experimental procedures that can be used to obtain data on columns 2 and 4 of Table 4 and column 2 of Table 5.
In the primary reaction, the reduction of α-KG acid to 2-HG is accompanied by a concomitant oxidation of NADPH to NADP. The amount of NADPH remaining at the end of the reaction time is measured in a secondary diaphorase/resazurin reaction in which the NADPH is consumed in a 1:1 molar ratio with the conversion of resazurin to the highly fluorescent resorufin.
The mixture of compound, enzyme, and cofactor is pre-incubated at room temperature for 1 hr prior to the addition of alpha-ketoglutarate. To perform the secondary reaction, 10 uL of 1× buffer containing 36 μg/ml diaphorase and […] resazurin is added to the primary reaction and incubated for a further 5 minutes at 25° C. […] Compounds or compound dilutions are prepared in 100% DMSO concentration and diluted 1:50 into the final reaction. […] IC50s are determined.
IDH1 or IDH2 wildtype (wt) and mutant heterodimers are expressed and purified by methods known in the art. […] Co-expression of IDH1wt-his and IDH1R132C-flag is carried out in sf9 insect cells. Cells (25 g) are resuspended in 250 ml of 50 mM Tirs, 500 mM NaCl, pH7.4, at 4° C. with stirring. Cells are disrupted with 4 passes through an M-Y110 Micro fluidizer (Microfluidics) set to 500 psi, and then centrifuged at 22,000 rcf for 20 min at 4° C. The supernatant is harvested and loaded at 15 cm/h on a Histrap FF 5*1 ml column (GE) which is equilibrated with 50 mM Tirs, 500 mM NaCl, pH7.4. Host cell contaminants are removed by washing the column with equilibration buffer followed by equilibration buffer containing 20 mM imidazole and 60 mM imidazole to baseline. IDH1wt-his homodimer and IDH1wt-his/IDH1R132C-flag are eluted by equilibration buffer containing 250 mM imidazole. Fractions eluted by 250 mM imidazole are pooled together and loaded at 15 cm/h onto a column pre-packed with 10 ml ANTI-FLAG® M2 Affinity Gel (Sigma), the column is equilibrated with 50 mM Tris, 500 mM NaCl, pH7.4. After washing with equilibration buffer, IDH1wt-his/IDH1R132C-flag heterodimer is eluted by equilibration buffer containing flag peptide (0.2 mg/ml). Aliquots of IDH1wt-his/IDH1R132C-flag are flash frozen in liquid N2 and stored at −80° C. Same conditions are used for the purification of IDH1wt-his/IDH1R132H-flag.

IDH2 R140Q = IDH2 R140Q (Homo sapiens (Human), UniProt P48735, R140Q); experiment: In vitro assay for IDH2m R140Q inhibitors, cofactor depletion assay; format: biochemical; details: IDH2 R140Q enzyme
Chain of IDH2 R140Q (P48735 40-452 R140Q): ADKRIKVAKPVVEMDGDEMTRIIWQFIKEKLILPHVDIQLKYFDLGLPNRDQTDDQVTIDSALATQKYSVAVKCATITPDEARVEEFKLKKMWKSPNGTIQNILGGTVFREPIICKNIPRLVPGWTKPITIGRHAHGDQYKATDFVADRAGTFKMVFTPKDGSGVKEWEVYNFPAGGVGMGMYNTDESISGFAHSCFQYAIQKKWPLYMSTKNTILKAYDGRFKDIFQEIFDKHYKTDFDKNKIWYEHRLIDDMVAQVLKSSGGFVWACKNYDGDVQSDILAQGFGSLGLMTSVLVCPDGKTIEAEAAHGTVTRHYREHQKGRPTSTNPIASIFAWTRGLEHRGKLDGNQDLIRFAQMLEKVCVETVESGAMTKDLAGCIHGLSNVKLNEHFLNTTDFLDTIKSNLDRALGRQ
Text: The following describes the experimental procedures used to obtain data on column 7 of Table 4.
The reaction is terminated by the addition of a second enzyme, diaphorase, and a corresponding substrate, resazurin. Diaphorase reduces resazurin to the highly fluorescent resorufin with the concomitant oxidation of NADPH to NADP, both halting the IDH2 reaction by depleting the available cofactor pool and facilitating quantitation of the amount of cofactor remaining after a specific time period through quantitative production of an easily detected fluorophore.
The test compound is then incubated for one hour at room temperature with the enzyme; before starting the IDH2 reaction with the addition of 10 μl of substrate mix containing 4 μM NADPH and 1.6 mM α-KG in the buffer described above. After a further 16 hours of incubation at room temperature, the reaction is halted and the remaining NADPH measured through conversion of resazurin to resorufin by the addition of 25 μl Stop Mix (36 μg/ml diaphorase enzyme and 60 μM resazurin; in buffer).

[2] = test system: U87MG pLVX-IDH2 R140Q-neo cells; experiment: U87MG pLVX-IDH2 R140Q-neo cell based assay, 2-HG by LC-MS
[3] = test system: Neurosphere cells (TS603); experiment: Cellular assay for IDH1m R132H inhibitors, 2-HG by LC-MS in neurosphere cells (TS603); format: cell-based; details: 2-HG in media at 48 hours
Procedure: Cellular Assay for IDH1m R132H Inhibitors.
The following describes the experimental procedures that can be used to obtain data in column 4 of Table 5.
Neurosphere cells (TS603) are grown at 37 C in 5% CO2 in Stem Cell Technologies NeuroCult™ NS-A media supplemented with 1% Primocin, 1% Normocin, 0.0002% Heparin, 20 ng/mL EGF and 10 ng/mL bFGF. Cells are harvested, pelleted and resuspended in Accumax for cell dissociation and counting. Cells are counted and then resuspended in NeuroCult media with 2× heparin, EGF and bFGF at 4 million cells/10 mL media. 100 μl of cell solution are plated in each well of a 96 well with the exception of columns 1 and 12. Columns 1 and 12 contain 200 μL PBS. Compound dose responses are set up at a 2× concentration in Neurocult media without heparin, EGF and bFGF. The final concentration of DMSO is 0.25%. DMSO only control wells are plated in row H. The plates are then placed in the incubator for 48 hours. At 48 hours, 100 μl of media is removed from each well and analyzed by LC-MS for 2-HG concentrations. The cell plate is placed back in the incubator for another 24 hours. At 72 hours post compound addition, 10 mL/plate of Promega Cell Titer Glo reagent is thawed and mixed. The cell plate is removed from the incubator and allowed to equilibrate to room temperature. Then 100 μl of Promega Cell Titer Glo reagent is added to each well of media. The cell plate is then placed on an orbital shaker for 10 minutes and then allowed to sit at room temperature for 20 minutes. The plate is then read for luminescence with an integration time of 500 ms.

[4] = IDH1 wt/R132H heterodimer, NADPH/NADP, not saturated, read-out: IDH1 wt/R132H NADPH/NADP IC50 not saturated
[5] = IDH1 wt/IDH1 R132H heterodimer, 300 μM NADP (saturated), read-out: IDH1 wt/R132H NADPH/NADP IC50 saturated

Chain of IDH1 wt/IDH1 R132H heterodimer (O75874 whole entry R132H): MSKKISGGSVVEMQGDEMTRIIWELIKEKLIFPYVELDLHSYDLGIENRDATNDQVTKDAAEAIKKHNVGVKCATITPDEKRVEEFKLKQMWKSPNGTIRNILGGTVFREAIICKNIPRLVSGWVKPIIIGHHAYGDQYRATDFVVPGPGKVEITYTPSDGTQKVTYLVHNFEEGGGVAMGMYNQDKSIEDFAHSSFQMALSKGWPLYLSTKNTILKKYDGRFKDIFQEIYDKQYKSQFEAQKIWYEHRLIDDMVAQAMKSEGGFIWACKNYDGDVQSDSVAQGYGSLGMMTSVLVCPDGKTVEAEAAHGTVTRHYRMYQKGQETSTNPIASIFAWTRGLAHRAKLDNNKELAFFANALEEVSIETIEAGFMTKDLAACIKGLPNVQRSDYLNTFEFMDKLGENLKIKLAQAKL
Chain of IDH1 wt/IDH1 R132H heterodimer (O75874 whole entry, stated change not applied): as the sequence (O75874 whole entry R132H) above, with H132R counted along it

Row | Structure (SMILES) | IC50 [1, 4] [nM] | IC50 (IDH2 R140Q) [nM] | IC50 ([2]; Homo sapiens, U-87 MG) [nM] | IC50 [3] [nM] | IC50 [1, 5] [nM] | IC50 [2] [nM]
1 | Fc1cc(F)cc(Nc2nc(NC3CCC(F)(F)C3)nc(-c3cncc(Cl)n3)n2)c1 (stereo not drawn) [Compound 109] | < 50 | < 50 | < 50 | < 50 |  | 
2 | FC1(F)CCC(Nc2nc(NC3CCC(F)(F)C3)nc(-c3cncc(Cl)n3)n2)C1 (stereo not drawn) [Compound 129] | < 50 | < 50 | < 50 | < 50 |  | 
3 | C[C@@H](Nc1nc(NC2CCc3ccccc32)nc(-c2cccc(C(F)(F)F)n2)n1)C1CC1 (stereo partly drawn) [Compound 135] | < 50 |  |  | < 50 |  | 
4 | Fc1cc(F)cc(Nc2nc(NC3CCC(F)(F)C3)nc(-c3nc(F)ccc3F)n2)c1 (stereo not drawn) [Compound 139] | < 50 | < 50 | < 50 | < 50 |  | 
5 | FC1(F)CCC(Nc2nc(NC3CCC(F)(F)C3)nc(-c3nc(C(F)(F)F)cs3)n2)C1 (stereo not drawn) [Compound 148] | < 50 | < 50 | < 50 | < 50 |  | 
6 | Fc1ccc2c(c1)CC(Nc1nc(NC3CCC(F)(F)C3)nc(-c3cccc(C(F)(F)F)n3)n1)C2 (stereo not drawn) [Compound 150] | < 50 | < 50 | < 50 | < 50 |  | 
7 | FC1(F)CCC(Nc2nc(NC3CCC(c4ccccc4)C3)nc(-c3cccc(C(F)(F)F)n3)n2)C1 (stereo not drawn) [Compound 184] | < 50 | < 50 | < 50 | < 50 |  | 
8 | C[C@@H](Nc1nc(N[C@H](C)C2CC2)nc(-c2cccc(C(F)F)n2)n1)C1CC1 [Compound 198] | < 50 | < 50 | < 50 | < 50 |  | 
9 | N#Cc1cc(Nc2nc(NC3CCC(F)(F)CC3)nc(-c3cccc(C(F)(F)F)n3)n2)ccn1 [Compound 204] | < 50 | < 50 | < 50 | < 50 |  | 
10 | CC(Cc1ccccc1)Nc1nc(N[C@H](C)C2CC2)nc(-c2cccc(C(F)(F)F)n2)n1 (stereo partly drawn) [Compound 206] | < 50 |  |  | < 50 |  | 
11 | FC1(F)CCC(Nc2nc(NC3CC(c4ccccc4)C3)nc(-c3cccc(C(F)(F)F)n3)n2)C1 (stereo not drawn) [Compound 208] | < 50 |  |  | < 50 |  | 
12 | FC1(F)CCC(Nc2nc(NC3CCN(c4ccccc4)C3)nc(-c3cccc(C(F)(F)F)n3)n2)C1 (stereo not drawn) [Compound 219] | < 50 |  |  | < 50 |  | 
13 | FC1(F)CCC(Nc2nc(NC3Cc4ccc(Br)cc4C3)nc(-c3cccc(C(F)(F)F)n3)n2)C1 (stereo not drawn) [Compound 225] | < 50 |  |  | < 50 |  | 
14 | FC1(F)CCC(Nc2nc(NC3CC4(C3)CC(F)(F)C4)nc(-c3cccc(C(F)(F)F)n3)n2)CC1 [Compound 228] | < 50 | < 50 | < 50 | < 50 |  | 
15 | Fc1ccc([C@H]2C[C@H](Nc3nc(NC4CCC(F)(F)C4)nc(-c4cccc(C(F)(F)F)n4)n3)C2)cc1 (stereo partly drawn) [Compound 230] | < 50 | < 50 | < 50 | < 50 |  | 
16 | FC1(F)CCC(Nc2nc(NC3Cc4cc(Br)cc(Br)c4C3)nc(-c3cccc(C(F)(F)F)n3)n2)C1 (stereo not drawn) [Compound 254] | 50 to 100 |  |  | 50 to 100 |  | 
17 | FC1(F)CC(Nc2nc(NC3CC(F)(F)C3)nc(-c3cccc(OC(F)(F)F)n3)n2)C1 [Compound 277] | 100 to 1000 | 50 to 100 | 50 to 100 |  |  | 

Row | Structure (SMILES) | IC50 [1, 4] [nM] | IC50 (IDH2 R140Q) [nM] | IC50 ([2]; Homo sapiens, U-87 MG) [nM] | IC50 [3] [nM] | IC50 [1, 5] [nM] | IC50 [2] [nM]
18 | C[C@@H](Nc1nc(N[C@H](C)C2CC2)nc(-c2cncc(Cl)c2)n1)C1CC1 [Compound 278] | 100 to 1000 | > 1000 | > 1000 |  |  | 
19 | C[C@@H](Nc1nc(N[C@H](C)C2CC2)nc(-c2cccc(N)n2)n1)C1CC1 [Compound 285] | 100 to 1000 | > 1000 | > 1000 |  |  | 
20 | CC(C)(O)CNc1nc(Nc2ccnc(C#N)c2)nc(-c2cccc(C(F)(F)F)n2)n1 [Compound 288] | 100 to 1000 | 100 to 1000 | 100 to 1000 |  |  | 
21 | FC1(F)CCC(Nc2nc(NC3CCC(F)(F)CC3)nc(-c3cccc(C4CC4)n3)n2)CC1 [Compound 305] | > 1000 |  |  | 100 to 1000 |  | 
22 | FC1(F)CCC(Nc2nc(NC3CCC(F)(F)CC3)nc(-c3cc(C(F)(F)F)ccn3)n2)CC1 [Compound 318] | > 1000 |  |  | ≥ 1000 |  | 
23 | C[C@@H](Nc1nc(N[C@H](C)C(F)(F)F)nc(-c2cccc(C(F)(F)F)n2)n1)C(F)(F)F [Compound 335] |  |  |  | < 50 | < 50 | 
24 | C[C@@H](Nc1nc(Nc2ccnc(C3(C#N)CC3)c2)nc(-c2cncc(C(F)F)n2)n1)C(F)(F)F [Compound 336] |  |  |  | < 50 | < 50 | 
25 | C[C@H](Nc1nc(Nc2ccnc(C3(C#N)CC3)c2)nc(-c2cncc(C(F)F)n2)n1)C(F)(F)F [Compound 337] |  |  |  | < 50 | < 50 | 
26 | N#CC1(c2cc(Nc3nc(NC4CCC(F)(F)CC4)nc(-c4cncc(C(F)F)n4)n3)ccn2)CC1 [Compound 338] |  |  |  | < 50 | 50 to 100 | 
27 | CC[C@H](Nc1nc(N[C@@H](CC)C(F)(F)F)nc(-c2cncc(C(F)(F)F)n2)n1)C(F)(F)F [Compound 339] |  | < 50 | < 50 | < 50 | < 50 | 
28 | FC1(F)CC[C@@H](Nc2nc(Nc3ccnc(C(F)(F)F)c3)nc(-c3ccnc(C(F)(F)F)n3)n2)C1 [Compound 340] |  | < 50 | < 50 | 50 to 100 | 100 to 1000 | 
29 | FC1(F)CC[C@H](Nc2nc(Nc3ccnc(C(F)(F)F)c3)nc(-c3ccnc(C(F)(F)F)n3)n2)C1 [Compound 343] |  | < 50 | < 50 |  | 100 to 1000 | 
30 | N#CC1(c2cc(Nc3nc(N[C@H]4CCC(F)(F)C4)nc(-c4nccc(C(F)(F)F)n4)n3)ccn2)CC1 [Compound 376] |  | < 50 | < 50 |  | > 1000 | 
31 | C[C@@H](Nc1nc(N[C@H](C)C2CC2)nc(-c2cccc3[nH]ccc23)n1)C1CC1 [Compound 396] |  | 50 to 100 |  |  | > 1000 | 50 to 100
32 | CC(C)(O)CNc1nc(Nc2cc(F)cc(C(F)(F)F)c2)nc(-c2cccc(C(C)(F)F)n2)n1 [Compound 397] |  | < 50 | < 50 |  | 100 to 1000 | 
33 | CC(C)(O)CNc1nc(Nc2cc(F)cc(C#N)c2)nc(-c2cccc(C(C)(F)F)n2)n1 [Compound 398] |  | < 50 | < 50 |  | 100 to 1000 | 
